This passage reports IC50 results from US6967197B2, “Thiazepinyl hydroxamic acid derivatives as matrix metalloproteinase inhibitors” (Fujisawa Pharmaceutical Co., Ltd., priority 2000, dated 2005).

The target of this test is T1, human MMP-9 (Homo sapiens, UniProt P14780).
T1 construct: purchased Yagai, Japan
The experiment in a line: Inhibitory activity of human MMP-9. Format: biochemical. The settings on record: commercial kit (Yagai, Japan); degradation of FITC-labeled bovine type IV collagen after incubation for 4 hours at 42° C. The method, then: Inhibitory Activity of Human MMP-9
The inhibitory activity of test compounds against human MMP-9 were measured by using commercial kits (Yagai, Japan). Gelatinolytic activity was determined by monitoring the degradation of FITC-labeled bovine type IV collagen after incubation for 4 hours at 42° C. The amount of degraded collagen was estimated by measuring the fluorescence intensity at 495 nm (excitation) and 520 nm (emission).
Inhibitory activity of human MMP-9 as mentioned above.

Structures are written as SMILES.

T1 sequence (P14780 94-707): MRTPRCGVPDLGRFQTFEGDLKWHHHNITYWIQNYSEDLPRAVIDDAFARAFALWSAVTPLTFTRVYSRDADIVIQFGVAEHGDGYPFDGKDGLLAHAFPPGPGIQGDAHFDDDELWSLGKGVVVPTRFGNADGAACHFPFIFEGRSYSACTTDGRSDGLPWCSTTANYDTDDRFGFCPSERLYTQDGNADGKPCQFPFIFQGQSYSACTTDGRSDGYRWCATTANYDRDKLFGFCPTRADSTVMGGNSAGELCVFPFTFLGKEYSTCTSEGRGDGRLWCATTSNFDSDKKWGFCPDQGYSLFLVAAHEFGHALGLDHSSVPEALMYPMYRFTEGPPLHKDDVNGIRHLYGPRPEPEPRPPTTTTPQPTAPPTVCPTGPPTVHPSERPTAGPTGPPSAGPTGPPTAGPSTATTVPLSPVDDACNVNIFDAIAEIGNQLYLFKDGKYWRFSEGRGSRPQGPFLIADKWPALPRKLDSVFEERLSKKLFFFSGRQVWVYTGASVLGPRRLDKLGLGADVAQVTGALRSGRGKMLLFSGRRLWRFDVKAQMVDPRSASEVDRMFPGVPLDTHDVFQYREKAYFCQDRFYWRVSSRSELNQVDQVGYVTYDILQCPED

Take `COc1ccc(-c2ccc(C3(CC(=O)NO)CCN(S(C)(=O)=O)CCS3(=O)=O)s2)cc1` (stereo not shown) [Example 17, N-hydroxy-2-[7-(5-(4-methoxyphenyl)-2-thienyl)-4-methanesulfonyl-1,1-dioxoperhydro-1,4-thiazepin-7-yl]acetamide]: it took 2.85 nM to reach half-maximal inhibition (IC50).
